Patent US20210254056A1, “IDENTIFICATION AND TARGETED MODULATION OF GENE SIGNALING NETWORKS” (CAMP4 THERAPEUTICS CORPORATION, priority 2017, published 2021)

Tested on: hepatocytes
Assay: RNA-seq of hepatocytes treated with Phase III failure compounds
Method: RNA-seq was performed to determine the effects of the compounds on hepatocytes.
Significance was determined by the criteria of FPKM≥0.5, a log 2(fold-change)≥1, and a […].

SMILES: O=P(O)(NCCCl)NCCCl [Palifosfamide]
- significant modulation of expression of disease genes (RNA-seq, q≤0.05, hepatocytes, genes in the value or listed in the block): significantly (q≤0.05) modulate expression of RMRP and FAM111B
- RNA-seq results: A1BG expression (gene A1BG, hepatocytes): −0.13
- RNA-seq results: AGTR1 expression (gene AGTR1, hepatocytes): −0.67
- RNA-seq results: AGXT expression (gene AGXT, hepatocytes): 0.30
- RNA-seq results: AHI1 expression (gene AHI1, hepatocytes): 0.06
- RNA-seq results: AMPD3 expression (gene AMPD3, hepatocytes): −0.01
- RNA-seq results: AMT expression (gene AMT, hepatocytes): 0.13
- RNA-seq results: ANGPTL3 expression (gene ANGPTL3, hepatocytes): −0.28
- RNA-seq results: ANKS4B expression (gene ANKS4B, hepatocytes): −0.16
- RNA-seq results: ANKS6 expression (gene ANKS6, hepatocytes): 0.12
- RNA-seq results: ANPEP expression (gene ANPEP, hepatocytes): −0.12
- RNA-seq results: AOC2 expression (gene AOC2, hepatocytes): 0.34
- RNA-seq results: APOA2 expression (gene APOA2, hepatocytes): −0.53
- RNA-seq results: APOA5 expression (gene APOA5, hepatocytes): 0.00
- RNA-seq results: APOB expression (gene APOB, hepatocytes): −0.23
- RNA-seq results: COG5 expression (gene COG5, hepatocytes): −0.03
- RNA-seq results: COG6 expression (gene COG6, hepatocytes): 0.08
- RNA-seq results: COL1A1 expression (gene COL1A1, hepatocytes): 0.48
- RNA-seq results: COX6A1 expression (gene COX6A1, hepatocytes): −0.07
- RNA-seq results: CP expression (gene CP, hepatocytes): 0.16
- RNA-seq results: CPS1 expression (gene CPS1, hepatocytes): 0.84
- RNA-seq results: CPT1A expression (gene CPT1A, hepatocytes): 1.06
- RNA-seq results: CPT2 expression (gene CPT2, hepatocytes): 0.33
- RNA-seq results: CROT expression (gene CROT, hepatocytes): −0.69
- RNA-seq results: CSPP1 expression (gene CSPP1, hepatocytes): 0.17
- RNA-seq results: CTC1 expression (gene CTC1, hepatocytes): 0.2
- RNA-seq results: CTDSP2 expression (gene CTDSP2, hepatocytes): 0.56
- RNA-seq results: CTH expression (gene CTH, hepatocytes): 1.87
- RNA-seq results: CTNS expression (gene CTNS, hepatocytes): 0.42
- RNA-seq results: CTSF expression (gene CTSF, hepatocytes): 0.68
- RNA-seq results: CTSK expression (gene CTSK, hepatocytes): −0.49
- RNA-seq results: CYB5A expression (gene CYB5A, hepatocytes): 0.43
- RNA-seq results: CYB5R3 expression (gene CYB5R3, hepatocytes): 0.05
- RNA-seq results, CYP2B6 expression (gene CYP2B6, hepatocytes): 0.03
- RNA-seq results: CYP2B6 expression (gene CYP2B6, hepatocytes): 0.58
- RNA-seq results, CYP2C19 expression (gene CYP2C19, hepatocytes): 0.12
- RNA-seq results: CYP2C19 expression (gene CYP2C19, hepatocytes): 0.2
- RNA-seq results, CYP2D6 expression (gene CYP2D6, hepatocytes): 0.10
- RNA-seq results: CYP2D6 expression (gene CYP2D6, hepatocytes): 0.47
- RNA-seq results, CYP3A4 expression (gene CYP3A4, hepatocytes): −0.49
- RNA-seq results: CYP3A4 expression (gene CYP3A4, hepatocytes): 2.11
- RNA-seq results, CYP7B1 expression (gene CYP7B1, hepatocytes): −0.21
- RNA-seq results: CYP7B1 expression (gene CYP7B1, hepatocytes): 0.28
- RNA-seq results: CYP27A1 expression (gene CYP27A1, hepatocytes): 0.51
- RNA-seq results, CYP39A1 expression (gene CYP39A1, hepatocytes): −0.43
- RNA-seq results: CYP39A1 expression (gene CYP39A1, hepatocytes): 0.62
- RNA-seq results: DAO expression (gene DAO, hepatocytes): −1.2
- RNA-seq results: DBT expression (gene DBT, hepatocytes): −0.43
- RNA-seq results: DCDC2 expression (gene DCDC2, hepatocytes): −2.5
- RNA-seq results: DCXR expression (gene DCXR, hepatocytes): −0.23
- RNA-seq results: FABP1 expression (gene FABP1, hepatocytes): −0.17
- RNA-seq results: FADD expression (gene FADD, hepatocytes): −0.29
- RNA-seq results: FAM111A expression (gene FAM111A, hepatocytes): −0.05
- RNA-seq results: FAM111B expression (gene FAM111B, hepatocytes): −2.02
- RNA-seq results: FAN1 expression (gene FAN1, hepatocytes): −0.36
- RNA-seq results: FARS2 expression (gene FARS2, hepatocytes): −0.34
- RNA-seq results: FASLG expression (gene FASLG, hepatocytes): −1.44
- RNA-seq results: FGA expression (gene FGA, hepatocytes): 0.12
- RNA-seq results: FGD1 expression (gene FGD1, hepatocytes): −0.27
- RNA-seq results: FGFR2 expression (gene FGFR2, hepatocytes): −0.22
- RNA-seq results: FIG4 expression (gene FIG4, hepatocytes): 0.06
- RNA-seq results: FIS1 expression (gene FIS1, hepatocytes): −0.18
- RNA-seq results: FTCD expression (gene FTCD, hepatocytes): 0.32
- RNA-seq results: FTH1 expression (gene FTH1, hepatocytes): 0.48
- RNA-seq results: FUCA1 expression (gene FUCA1, hepatocytes): 0.24
- RNA-seq results: FXN expression (gene FXN, hepatocytes): −0.02
- RNA-seq results: G6PC3 expression (gene G6PC3, hepatocytes): −0.25
- RNA-seq results: G6PC expression (gene G6PC, hepatocytes): 3.27
- RNA-seq results: G6PD expression (gene G6PD, hepatocytes): 0.13
- RNA-seq results: GALK1 expression (gene GALK1, hepatocytes): −0.37
- RNA-seq results: GALK2 expression (gene GALK2, hepatocytes): −0.25
- RNA-seq results: GALT expression (gene GALT, hepatocytes): 0.41
- RNA-seq results: GATA6 expression (gene GATA6, hepatocytes): 0.11
- RNA-seq results: GATM expression (gene GATM, hepatocytes): −0.46
- RNA-seq results: GBA expression (gene GBA, hepatocytes): −0.11
- RNA-seq results: GBE1 expression (gene GBE1, hepatocytes): 0.2
- RNA-seq results: GCH1 expression (gene GCH1, hepatocytes): −0.38
- RNA-seq results: GCKR expression (gene GCKR, hepatocytes): −0.08
- RNA-seq results: GCLC expression (gene GCLC, hepatocytes): 0.14
- RNA-seq results: GOSH expression (gene GOSH, hepatocytes): −0.4
- RNA-seq results: RRM2B (gene RRM2B, hepatocytes): −0.21
- RNA-seq results: RSAD1 (gene RSAD1, hepatocytes): 0.12
- RNA-seq results: SAMHD1 (gene SAMHD1, hepatocytes): −0.34
- RNA-seq results: SC5D (gene SC5D, hepatocytes): −0.37
- RNA-seq results: SCARB1 (gene SCARB1, hepatocytes): 0.05
- RNA-seq results: SCN9A (gene SCN9A, hepatocytes): −0.07
- RNA-seq results: SDCCAG8 (gene SDCCAG8, hepatocytes): −0.12
- RNA-seq results: SEPN1 (gene SEPN1, hepatocytes): 0.00
- RNA-seq results: SERAC1 (gene SERAC1, hepatocytes): −0.07
- RNA-seq results: SERPINA1 (gene SERPINA1, hepatocytes): −0.19
- RNA-seq results: SERPING1 (gene SERPING1, hepatocytes): −0.31
- RNA-seq results: SERPINI1 (gene SERPINI1, hepatocytes): −0.28
- RNA-seq results: SETBP1 (gene SETBP1, hepatocytes): 0.11
- RNA-seq results: SFXN4 (gene SFXN4, hepatocytes): −0.14
- RNA-seq results: SLC10A1 (gene SLC10A1, hepatocytes): −0.40
- RNA-seq results: SLC10A3 (gene SLC10A3, hepatocytes): 0.53
- RNA-seq results: SLC10A5 (gene SLC10A5, hepatocytes): −0.06
- RNA-seq results: SLC10A7 (gene SLC10A7, hepatocytes): −0.46
- RNA-seq results: SLC11A2 (gene SLC11A2, hepatocytes): −0.01
- RNA-seq results: SLC19A1 (gene SLC19A1, hepatocytes): −0.10
- RNA-seq results: SLC19A2 (gene SLC19A2, hepatocytes): −0.05
- RNA-seq results: SLC19A3 (gene SLC19A3, hepatocytes): −0.26
- RNA-seq results: SLC22A1 (gene SLC22A1, hepatocytes): −0.18
- RNA-seq results: SLC22A5 (gene SLC22A5, hepatocytes): 0.03
- RNA-seq results: SLC25A1 (gene SLC25A1, hepatocytes): 0.36
- RNA-seq results: SLC25A10 (gene SLC25A10, hepatocytes): 0.09
- RNA-seq results: SLC25A12 (gene SLC25A12, hepatocytes): 0.10
- RNA-seq results: SLC25A13 (gene SLC25A13, hepatocytes): −0.06
- RNA-seq results: SLC25A15 (gene SLC25A15, hepatocytes): 0.04
- RNA-seq results: SLC25A19 (gene SLC25A19, hepatocytes): −0.02
- RNA-seq results: SLC25A20 (gene SLC25A20, hepatocytes): −0.21
- RNA-seq results: SLC25A29 (gene SLC25A29, hepatocytes): 0.39
- RNA-seq results: SLC25A32 (gene SLC25A32, hepatocytes): −0.19

SMILES: Cl.OC[C@H]1NC[C@H](O)[C@@H](O)[C@H]1O [Deoxygalactonojirimycin hydrochloride]
- significant changes in gene expression (RNA-seq of Table 36, FPKM≥0.5, log 2(fold-change)≥1, q-value≤0.05): not observed to cause any significant changes in gene expression
- significant modulation of expression of any of the genes analyzed (RNA-seq, p≤0.05, hepatocytes): not observed to significantly modulate expression
